Results as given in ChEMBL document CHEMBL3045862, “PRE-CLINICAL AND CLINICAL PHARMACOKINETICS OF THE DIASTEREOMERS OF ARTEETHER, A POTENT ANTIMALARIAL” (Med Chem Res, 2004).

Tests used:
Assay type in all cases: ADME, organism-based
[1] = Tmax in Homo sapiens (human) at 150 mg; conditions: in vivo
Rhesus monkey [2] = assay: Dose normalized AUC in Macaca mulatta (Rhesus monkey) at 50 mg/kg, po; set-up: dose 50 mg/kg, route oral; conditions: in vivo
[3] = Volume of distribution in Rattus norvegicus Sprague-Dawley (rat) at 2 mg/kg, iv; set-up: dose 2 mg/kg, route intravenous; conditions: in vivo
Rattus norvegicus [4] = assay: Dose normalized AUC in Rattus norvegicus Sprague-Dawley (rat) at 2 mg/kg, iv; set-up: dose 2 mg/kg, route intravenous; conditions: in vivo
[5] = Elimination half life in Rattus norvegicus Sprague-Dawley (rat) at 30 mg/kg, administered intramuscularly; set-up: dose 30 mg/kg, route intramuscular; conditions: in vivo, im, read-out: beta t1/2 (converted)
[6] = Elimination half life in Rattus norvegicus Sprague-Dawley (rat) at 9 mg/kg, administered intramuscularly; set-up: dose 9 mg/kg, route intramuscular; conditions: in vivo, im, read-out: beta t1/2 (converted)
[7] = Tmax in Rattus norvegicus Sprague-Dawley (rat) at 9 mg/kg, po; set-up: dose 9 mg/kg, route oral; conditions: in vivo
[8] = Mean residence time in Rattus norvegicus Sprague-Dawley (rat) at 30 mg/kg, administered intramuscularly; set-up: dose 30 mg/kg, route intramuscular; conditions: in vivo, im
[9] = Tmax in Rattus norvegicus Sprague-Dawley (rat) at 30 mg/kg, administered intramuscularly; set-up: dose 30 mg/kg, route intramuscular; conditions: in vivo, im
Rattus norvegicus [10] = assay: Dose normalized AUC in Rattus norvegicus Sprague-Dawley (rat) at 9 mg/kg, administered intramuscularly; set-up: dose 9 mg/kg, route intramuscular; conditions: in vivo, im
[11] = Cmax in Homo sapiens (human) at 150 mg; set-up: dose 150 mg; conditions: in vivo
[12] = Cmax in Rattus norvegicus Sprague-Dawley (rat) at 9 mg/kg, po; set-up: dose 9 mg/kg, route oral; conditions: in vivo
Homo sapiens = species on record: Homo sapiens; assay: Dose normalized AUC in Homo sapiens (human) at 150 mg; conditions: in vivo
[13] = Mean residence time in Rattus norvegicus Sprague-Dawley (rat) at 2 mg/kg, iv; set-up: dose 2 mg/kg, route intravenous; conditions: in vivo
Rhesus monkey [14] = assay: Dose normalized AUC in Macaca mulatta (Rhesus monkey) at 7.5 mg/kg, administered intramuscularly; set-up: dose 7.5 mg/kg, route intramuscular; conditions: in vivo, im
[15] = Elimination half life in Macaca mulatta (Rhesus monkey) at 50 mg/kg, po; set-up: dose 50 mg/kg, route oral; conditions: in vivo, read-out: beta t1/2 (converted)
[16] = Elimination half life in Rattus norvegicus Sprague-Dawley (rat) at 17.5 mg/kg, po; set-up: dose 17.5 mg/kg, route oral; conditions: in vivo, read-out: beta t1/2 (converted)
[17] = Mean residence time in Homo sapiens (human) at 150 mg; conditions: in vivo
[18] = Cmax in Macaca mulatta (Rhesus monkey) at 50 mg/kg, po; set-up: dose 50 mg/kg, route oral; conditions: in vivo
[19] = Elimination half life in Rattus norvegicus Sprague-Dawley (rat) at 2 mg/kg, iv; set-up: dose 2 mg/kg, route intravenous; conditions: in vivo, read-out: beta t1/2 (converted)
[20] = Cmax in Rattus norvegicus Sprague-Dawley (rat) at 17.5 mg/kg, administered intramuscularly; set-up: dose 17.5 mg/kg, route intramuscular; conditions: in vivo, im
[21] = Elimination half life in Macaca mulatta (Rhesus monkey) at 4 mg/kg, iv; set-up: dose 4 mg/kg, route intravenous; conditions: in vivo, read-out: beta t1/2 (converted)
Rattus norvegicus [22] = assay: Dose normalized AUC in Rattus norvegicus Sprague-Dawley (rat) at 17.5 mg/kg, administered intramuscularly; set-up: dose 17.5 mg/kg, route intramuscular; conditions: in vivo, im
[23] = Tmax in Rattus norvegicus Sprague-Dawley (rat) at 9 mg/kg, administered intramuscularly; set-up: dose 9 mg/kg, route intramuscular; conditions: in vivo, im
Rattus norvegicus [24] = assay: Volume of distribution in Rattus norvegicus Sprague-Dawley (rat) at 30 mg/kg, po; set-up: dose 30 mg/kg, route oral; conditions: in vivo
[25] = Elimination half life in Homo sapiens (human) at 150 mg; conditions: in vivo, read-out: beta t1/2 (converted)
[26] = Elimination half life in Macaca mulatta (Rhesus monkey) at 7.5 mg/kg, administered intramuscularly; set-up: dose 7.5 mg/kg, route intramuscular; conditions: in vivo, im, read-out: beta t1/2 (converted)
Rattus norvegicus [27] = assay: Volume of distribution in Rattus norvegicus Sprague-Dawley (rat) at 9 mg/kg, po; set-up: dose 9 mg/kg, route oral; conditions: in vivo
Rhesus monkey [28] = assay: Dose normalized AUC in Macaca mulatta (Rhesus monkey) at 4 mg/kg, iv; set-up: dose 4 mg/kg, route intravenous; conditions: in vivo
Rattus norvegicus [29] = assay: Volume of distribution in Rattus norvegicus Sprague-Dawley (rat) at 17.5 mg/kg, po; set-up: dose 17.5 mg/kg, route oral; conditions: in vivo
Rattus norvegicus [30] = assay: Dose normalized AUC in Rattus norvegicus Sprague-Dawley (rat) at 9 mg/kg, po; set-up: dose 9 mg/kg, route oral; conditions: in vivo
[31] = Mean residence time in Macaca mulatta (Rhesus monkey) at 50 mg/kg, po; set-up: dose 50 mg/kg, route oral; conditions: in vivo
[32] = Cmax in Rattus norvegicus Sprague-Dawley (rat) at 30 mg/kg, administered intramuscularly; set-up: dose 30 mg/kg, route intramuscular; conditions: in vivo, im
[33] = Mean residence time in Rattus norvegicus Sprague-Dawley (rat) at 17.5 mg/kg, administered intramuscularly; set-up: dose 17.5 mg/kg, route intramuscular; conditions: in vivo, im
[34] = Cmax in Rattus norvegicus Sprague-Dawley (rat) at 30 mg/kg, po; set-up: dose 30 mg/kg, route oral; conditions: in vivo
[35] = Volume of distribution in Homo sapiens (human) at 150 mg; conditions: in vivo
[36] = Mean residence time in Rattus norvegicus Sprague-Dawley (rat) at 9 mg/kg, administered intramuscularly; set-up: dose 9 mg/kg, route intramuscular; conditions: in vivo, im
[37] = Mean residence time in Rattus norvegicus Sprague-Dawley (rat) at 9 mg/kg, po; set-up: dose 9 mg/kg, route oral; conditions: in vivo
Rattus norvegicus [38] = assay: Volume of distribution in Rattus norvegicus Sprague-Dawley (rat) at 30 mg/kg, administered intramuscularly; set-up: dose 30 mg/kg, route intramuscular; conditions: in vivo, im
[39] = Mean residence time in Rattus norvegicus Sprague-Dawley (rat) at 30 mg/kg, po; set-up: dose 30 mg/kg, route oral; conditions: in vivo
[40] = Cmax in Rattus norvegicus Sprague-Dawley (rat) at 9 mg/kg, administered intramuscularly; set-up: dose 9 mg/kg, route intramuscular; conditions: in vivo, im
Rattus norvegicus [41] = assay: Volume of distribution in Rattus norvegicus Sprague-Dawley (rat) at 17.5 mg/kg, administered intramuscularly; set-up: dose 17.5 mg/kg, route intramuscular; conditions: in vivo, im
Rattus norvegicus [42] = assay: Dose normalized AUC in Rattus norvegicus Sprague-Dawley (rat) at 30 mg/kg, administered intramuscularly; set-up: dose 30 mg/kg, route intramuscular; conditions: in vivo, im
[43] = Cmax in Rattus norvegicus Sprague-Dawley (rat) at 17.5 mg/kg, po; set-up: dose 17.5 mg/kg, route oral; conditions: in vivo
[44] = Mean residence time in Macaca mulatta (Rhesus monkey) at 7.5 mg/kg, administered intramuscularly; set-up: dose 7.5 mg/kg, route intramuscular; conditions: in vivo, im
Rhesus monkey [45] = assay: Volume of distribution in Macaca mulatta (Rhesus monkey) at 7.5 mg/kg, administered intramuscularly; set-up: dose 7.5 mg/kg, route intramuscular; conditions: in vivo, im
[46] = Tmax in Macaca mulatta (Rhesus monkey) at 7.5 mg/kg, administered intramuscularly; set-up: dose 7.5 mg/kg, route intramuscular; conditions: in vivo, im
[47] = AUC (0 to infinity) in Homo sapiens (human) at 150 mg; set-up: dose 150 mg, time infinity; conditions: plasma
[48] = Tmax in Macaca mulatta (Rhesus monkey) at 50 mg/kg, po; set-up: dose 50 mg/kg, route oral; conditions: in vivo
[49] = Cmax in Macaca mulatta (Rhesus monkey) at 7.5 mg/kg, administered intramuscularly; set-up: dose 7.5 mg/kg, route intramuscular; conditions: in vivo, im
[50] = Volume of distribution in Macaca mulatta (Rhesus monkey) at 4 mg/kg, iv; set-up: dose 4 mg/kg, route intravenous; conditions: in vivo
[51] = Elimination half life in Rattus norvegicus Sprague-Dawley (rat) at 30 mg/kg, po; set-up: dose 30 mg/kg, route oral; conditions: in vivo, read-out: beta t1/2 (converted)
[52] = Elimination half life in Rattus norvegicus Sprague-Dawley (rat) at 9 mg/kg, po; set-up: dose 9 mg/kg, route oral; conditions: in vivo, read-out: beta t1/2 (converted)
[53] = Mean residence time in Macaca mulatta (Rhesus monkey) at 4 mg/kg, iv; set-up: dose 4 mg/kg, route intravenous; conditions: in vivo
Rattus norvegicus [54] = assay: Dose normalized AUC in Rattus norvegicus Sprague-Dawley (rat) at 30 mg/kg, po; set-up: dose 30 mg/kg, route oral; conditions: in vivo
[55] = Tmax in Rattus norvegicus Sprague-Dawley (rat) at 17.5 mg/kg, po; set-up: dose 17.5 mg/kg, route oral; conditions: in vivo
[56] = Elimination half life in Rattus norvegicus Sprague-Dawley (rat) at 17.5 mg/kg, administered intramuscularly; set-up: dose 17.5 mg/kg, route intramuscular; conditions: in vivo, im, read-out: beta t1/2 (converted)
Rattus norvegicus [57] = assay: Volume of distribution in Rattus norvegicus Sprague-Dawley (rat) at 9 mg/kg, administered intramuscularly; set-up: dose 9 mg/kg, route intramuscular; conditions: in vivo, im
[58] = Clearance in Homo sapiens (human) at 150 mg; conditions: in vivo

Q: Which Tmax [1] does the source give for `CCO[C@H]1O[C@@H]2O[C@@]3(C)CC[C@H]4[C@H](C)CC[C@@H]([C@H]1C)[C@@]24OO3` [ARTEMOTIL] here?
A: 6.9 min

Q: And the AUC/dose (Rhesus monkey [2])?
A: 0.2 ng·h/mL

Q: And the Vd [3]?
A: 9.3 L/kg

Q: And the AUC/dose (Rattus norvegicus [4])?
A: 132 ng·h/mL

Q: What about the half-life [5] of the same molecule?
A: 25.2 h

Q: What about the half-life [6] of the same molecule?
A: 28.5 h

Q: And the Tmax [7]?
A: 5 min

Q: And the MRT [8]?
A: 44.2 h

Q: What about the Tmax [9] of the same molecule?
A: 0.167 h

Q: And the AUC/dose (Rattus norvegicus [10])?
A: 187.8 ng·h/mL

Q: And the Cmax [11]?
A: 49.8 ng/mL

Q: And the Cmax [12]?
A: 10.3 ng/mL

Q: And the AUC/dose (Homo sapiens)?
A: 1315.7 ng·h/mL

Q: And the MRT [13]?
A: 0.9 h

Q: And the AUC/dose (Rhesus monkey [14])?
A: 142.2 ng·h/mL

Q: What about the half-life [15] of the same molecule?
A: 4.4 h

Q: What about the half-life [16] of the same molecule?
A: 4.5 h

Q: And the MRT [17]?
A: 47.4 h

Q: And the Cmax [18]?
A: 1.7 ng/mL

Q: And the half-life [19]?
A: 0.85 h

Q: And the Cmax [20]?
A: 136 ng/mL

Q: And the half-life [21]?
A: 2.6 h

Q: What about the AUC/dose (Rattus norvegicus [22]) of the same molecule?
A: 197.1 ng·h/mL

Q: What about the Tmax [23] of the same molecule?
A: 0.333 h

Q: What about the Vd (Rattus norvegicus [24]) of the same molecule?
A: 3024.2 L/kg

Q: What about the half-life [25] of the same molecule?
A: 30.2 h

Q: And the half-life [26]?
A: 19.1 h

Q: And the Vd (Rattus norvegicus [27])?
A: 770.8 L/kg

Q: What about the AUC/dose (Rhesus monkey [28]) of the same molecule?
A: 435.8 ng·h/mL

Q: What about the Vd (Rattus norvegicus [29]) of the same molecule?
A: 1965.9 L/kg

Q: And the AUC/dose (Rattus norvegicus [30])?
A: 7.4 ng·h/mL

Q: And the MRT [31]?
A: 5.8 h

Q: And the Cmax [32]?
A: 27.8 ng/mL

Q: What about the MRT [33] of the same molecule?
A: 33.2 h

Q: What about the Cmax [34] of the same molecule?
A: 8.1 ng/mL

Q: And the Vd [35]?
A: 36.2 L/kg

Q: What about the MRT [36] of the same molecule?
A: 40.8 h

Q: And the MRT [37]?
A: 6.7 h

Q: What about the Vd (Rattus norvegicus [38]) of the same molecule?
A: 1660.6 L/kg

Q: And the MRT [39]?
A: 3.4 h

Q: What about the Cmax [40] of the same molecule?
A: 39.8 ng/mL

Q: What about the Vd (Rattus norvegicus [41]) of the same molecule?
A: 198.7 L/kg

Q: And the AUC/dose (Rattus norvegicus [42])?
A: 19.4 ng·h/mL

Q: And the Cmax [43]?
A: 8.1 ng/mL

Q: What about the MRT [44] of the same molecule?
A: 26.7 h

Q: What about the Vd (Rhesus monkey [45]) of the same molecule?
A: 197.2 L/kg

Q: What about the Tmax [46] of the same molecule?
A: 1.83 h

Q: What about the AUC(0-inf) [47] of the same molecule?
A: 2330 ng·h/mL

Q: What about the Tmax [48] of the same molecule?
A: 0.583 h

Q: What about the Cmax [49] of the same molecule?
A: 45.2 ng/mL

Q: What about the Vd [50] of the same molecule?
A: 8.6 L/kg

Q: And the half-life [51]?
A: 2.8 h

Q: What about the half-life [52] of the same molecule?
A: 4.2 h

Q: What about the MRT [53] of the same molecule?
A: 2.8 h

Q: And the AUC/dose (Rattus norvegicus [54])?
A: 1.2 ng·h/mL

Q: What about the Tmax [55] of the same molecule?
A: 5 min

Q: And the half-life [56]?
A: 27.5 h

Q: And the Vd (Rattus norvegicus [57])?
A: 213.2 L/kg

Q: And the clearance [58]?
A: 13.3 mL/min/kg
